Measurements reported in patent publication US20120328638A1, “MYBL2 PEPTIDES AND VACCINES CONTAINING THE SAME” (Onco Therapy Science, Inc., priority 2009, published 2012).
“Also recorded” adds a separate entry of the source. Ends that are not written are not given here.

Legend:
peptide-pulsed T2 cells = test: IFN-gamma ELISPOT assay of peptide specific CTL activity after in vitro CTL induction; format: cell-based, human; conditions: against peptide-pulsed T2 cells compared with control not pulsed; PBMCs of HLA-A*0201 positive donor; day 21
Excerpt: Monocyte-derived dendritic cells (DCs) were used as antigen-presenting cells (APCs) to induce cytotoxic T lymphocyte (CTL) responses against peptides presented on human leukocyte antigen (HLA). DCs were generated in vitro as described elsewhere (Nakahara S et al., Cancer Res 2003 Jul. 15, 63(14): 4112-8). Specifically, peripheral blood mononuclear cells (PBMCs) isolated from a normal volunteer (HLA-A*0201 positive) by Ficoll-Plaque (Pharmacia) solution were separated by adherence to a plastic tissue culture dish (Becton Dickinson) so as to enrich them as the monocyte fraction. The monocyte-enriched population was cultured in the presence of 1000 U/ml of granulocyte-macrophage colony-stimulating factor (R&D System) and 1000 U/ml of interleukin (IL)-4 (R&D System) in AIM-V Medium (Invitrogen) containing 2% heat-inactivated autologous serum (AS). After 7 days of culture, the cytokine-induced DCs were pulsed with 20 microgram/ml of each of the synthesized peptides in the presence of 3 microgram/ml of beta 2-microglobulin for 3 hrs at 37 degrees C. in AIM-V Medium. The generated cells appeared to express DC-associated molecules, such as CD80, CD83, CD86 and HLA class II, on their cell surfaces (data not shown). […]

[1] = tested on: COS7 cells transfected with MYBL2 and HLA-A*0201; test: Specific CTL activity against target cells exogenously expressing MYBL2 and HLA-A*0201; format: cell-based, African green monkey
Excerpt: The cDNA encoding an open reading frame of target genes or HLA-A*0201 was amplified by PCR. The PCR-amplified product was cloned into expression vector. The plasmids were transfected into COS7, which is the target genes and HLA-A*0201-null cell line, using lipofectamine 2000 (Invitrogen) according to the manufacturer's recommended procedures. After 2 days from transfection, the transfected cells were harvested with versene (Invitrogen) and used as the stimulator cells (5×10^4 cells/well) for CTL activity assay.
The established CTL clone raised against MYBL2-A02-9-144 (SEQ ID NO: 3) was examined for the ability to recognize target cells that express MYBL2 and HLA-A*0201 molecule. […] COS7 cells transfected with either full length of MYBL2 or HLA-A* 0201 were prepared as the controls.

[2] = tested on: target cells pulsed with the corresponding peptide (T2); test: IFN-gamma ELISA assay of established CTL line and CTL clone; format: cell-based, human
Experimental: CTLs were expanded in culture using the method similar to the one described by Riddell et al. (Walter E A et al., N Engl J Med 1995 Oct. 19, 333(16): 1038-44; Riddell S R et al., Nat Med 1996 February, 2(2): 216-23). A total of 5×10^4 CTLs were suspended in 25 ml of AIM-V/5% AS medium with 2 kinds of human B-lymphoblastoid cell lines, inactivated by Mitomycin C, in the presence of 40 ng/ml of anti-CD3 monoclonal antibody (Pharmingen). One day after initiating the cultures, 120 IU/ml of IL-2 were added to the cultures. The cultures were fed with fresh AIM-V/5% AS medium containing 30 IU/ml of IL-2 on days 5, 8 and 11 (Tanaka H et al., Br J Cancer 2001 Jan. 5, 84(1): 94-9; Umano Y et al., Br J Cancer 2001 Apr. 20, 84(8): 1052-7; Uchida N et al., Clin Cancer Res 2004 Dec. 15, 10(24): 8577-86; Suda T et al., Cancer Sci 2006 May, 97(5): 411-9; Watanabe T et al., Cancer Sci 2005 August, 96(8): 498-506).
The dilutions were made to have 0.3, 1, and 3 CTLs/well in 96 round-bottomed micro titer plate (Nalge Nunc International). CTLs were cultured with 1×10^4 cells/well of 2 kinds of human B-lymphoblastoid cell lines, 30 ng/ml of anti-CD3 antibody, and 125 U/ml of IL-2 in a total of 150 microliter/well of AIM-V Medium containing 5% AS. 50 microliter/well of IL-2 were added to the medium 10 days later so to reach a final concentration of 125 U/ml IL-2. […]

Row | Sequence | IFN-gamma production of CTLs stimulated with peptide (ELISPOT) (peptide-pulsed T2 cells) | Specific CTL activity of CTL clone against COS7 cells expressing both MYBL2 and HLA-A*0201 ([1]; COS7 transfected with both full length MYBL2 and HLA-A*0201) | Specific CTL activity of CTL clone against control COS7 cells ([1]; COS7 transfected with either full length MYBL2 or HLA-A*0201 alone) | IFN-gamma production of CTL clone (ELISA) ([2]; CTL clone established by limiting dilution, target cells pulsed with peptide vs not pulsed) | IFN-gamma production of CTL line (ELISA) ([2]; CTL line from well #8, target cells pulsed with peptide vs without peptide pulse)
1 | RIICEAHKV [MYBL2-A02-9-144, RIICEAHKV] | potent IFN-gamma production | potent CTL activity; also recorded: specific CTL activity | no significant specific CTL activity was detected | potent IFN-gamma production | potent IFN-gamma production
2 | VLPPRQPSA [MYBL2-A02-9-355, VLPPRQPSA] | specific IFN-gamma production was not observed; also recorded: no specific IFN-gamma production was detected | – | – | – | –
